The source made the active and inactive calls. No rule for the calls is given here.
System: rodent carcinogenicity bioassays, tumor incidence
Assay: CCRIS carcinogenicity studies
Method in brief: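 NCI-built, expert-reviewed records of carcinogenicity and related test outcomes (mutagenicity, tumor promotion/inhibition) compiled from published and report sources, historical span 1985-2011, not updated.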

## CC(=O)N(O)c1ccc2c(c1)Cc1ccccc1-2
Species: GUINEA PIG, Strain/Sex: FEMALE, Route: INTRAPERITONEAL, Dose: 1.5 G/100 G SUSPENDED IN SALINE-GUM ACACIA 3/WK FOR 27 MO, Tumor Site: Type of Lesion: INJECTION SITE: SARCOMA
  carcinogen call: active; positive
Species: GUINEA PIG, Strain/Sex: MALE, Route: ORAL, Dose: 0.024-0.064% IN DIET (AMOUNT VARIED BECAUSE OF TOXICITY), Tumor Site: Type of Lesion: INTESTINES (SMALL): ADENOCARCINOMA
  carcinogen call: active; positive
Species: HAMSTER, Strain/Sex: MALE, Route: INTRAPERITONEAL, Dose: 1.5 G/100 G SUSPENDED IN SALINE-GUM ACACIA 3/WK FOR 6-8 MO, Tumor Site: Type of Lesion: PERITONEAL CAVITY: FIBROSARCOMA
  carcinogen call: active; positive
Species: HAMSTER, Strain/Sex: MALE, Route: ORAL, Dose: 0.032% IN DIET AS 5-10 G OF GLUCOSE TRITURATE/KG DIET FOR 7.5 MO, Tumor Site: Type of Lesion: FORESTOMACH: PAPILLOMA, SQUAMOUS CELL CARCINOMA, LIVER: BENIGN TUMOR
  carcinogen call: active; positive
Species: MOUSE, Strain/Sex: B6C3F1/MALE, Route: INTRAPERITONEAL, Dose: 0, 0.025, 0.08, 0.23 UMOL/G BW IN 5 µL/G BW OF 80% DMSO ONCE AT 12 D OF AGE (STUDY DURATION: 9 MO), Dose: 0, 0.025, 0.08, 0.23 UMOL/G BW IN 5 µL/G BW OF 80% DMSO ONCE AT 12 D OF AGE (STUDY DURATION: 9 MO), Tumor Site: Type of Lesion: LIVER: HEPATOMA
  carcinogen call: active; positive
Species: MOUSE, Strain/Sex: B6C3F2 (BRACHYMORPHOIC)/MALE, Route: INTRAPERITONEAL, Dose: 0, 0.025, 0.08, 0.23 UMOL/G BW IN 5 µL/G BW OF 80% DMSO ONCE AT 12 D OF AGE (STUDY DURATION: 9 MO), Dose: 0, 0.025, 0.08, 0.23 UMOL/G BW IN 5 µL/G BW OF 80% DMSO ONCE AT 12 D OF AGE (STUDY DURATION: 9 MO), Tumor Site: Type of Lesion: LIVER: HEPATOMA
  carcinogen call: active; positive
Species: RABBIT, Strain/Sex: NZW/MALE,FEMALE, Route: INTRAPERITONEAL, Dose: 32.3 MG/KG IN 3 ML/KG SALINE 3/WK FOR 40 WK, Tumor Site: Type of Lesion: PERITONEAL CAVITY: SARCOMA
  carcinogen call: active; positive
Species: RAT, Strain/Sex: CRBL/FEMALE, Route: INTRAPERITONEAL, Dose: 4.O MG/100 G 3/WK FOR 2 WK THEN 3.0 MG/100 G 3/WK FOR 2 WK, Tumor Site: Type of Lesion: MAMMARY GLAND: BENIGN TUMOR, NEOPLASM
  carcinogen call: active; positive
Species: RAT, Strain/Sex: F344/FEMALE, Route: INTRAPERITONEAL, Dose: 0.10 MMOL/RAT (TOTAL DOSE), Tumor Site: Type of Lesion: LIVER: CHOLANGIOMA, CARCINOMA
  carcinogen call: active; positive
Species: RAT, Strain/Sex: F344/MALE, Route: ORAL, Dose: 160 UG/G IN DIET FOR 12 WK, Tumor Site: Type of Lesion: LIVER: HEPATOMA
  carcinogen call: active; positive
Species: RAT, Strain/Sex: HOLTZMAN/FEMALE, Route: INTRAPERITONEAL, Dose: 2-AAF EQUIV OF 2.5 MG SUSPENDED IN SALINE-GUM ACACIA 3/WK FOR 3 WK THEN 3.5 MG FOR 2 WK THEN 3.0 MG FOR 9 WK, Tumor Site: Type of Lesion: MAMMARY GLAND: NEOPLASM, PERITONEAL CAVITY: SARCOMA
  carcinogen call: active; positive
Species: RAT, Strain/Sex: HOLTZMAN/FEMALE, Route: INTRAPERITONEAL, Dose: 2-AAF EQUIV OF 4 MG IN 0.4 ML SALINE-GUM ACACIA 3/WK FOR 4 WK, Tumor Site: Type of Lesion: MAMMARY GLAND: NEOPLASM
  carcinogen call: active; positive
Species: RAT, Strain/Sex: HOLTZMAN/FEMALE, Route: ORAL, Dose: 0.032% IN GRAIN DIET FOR 4 MO, Tumor Site: Type of Lesion: MAMMARY GLAND: NEOPLASM, FORESTOMACH: PAPILLOMA, CARCINOMA, EAR (DUCT): NEOPLASM, INTESTINES (SMALL), Tumor Site: Type of Lesion: MAMMARY GLAND: NEOPLASM, FORESTOMACH: PAPILLOMA, CARCINOMA, EAR (DUCT): NEOPLASM, INTESTINES (SMALL)
  carcinogen call: active; positive
Species: RAT, Strain/Sex: HOLTZMAN/MALE, Route: INTRAPERITONEAL, Dose: 2-AAF EQUIV OF 2.5 MG SUSPENDED IN SALINE-GUM ACACIA 3/WK FOR 3 WK THEN 3.5 MG 3/WK FOR 3 WK THEN 3.0 MG 3/WK FOR 9 WK, Tumor Site: Type of Lesion: EAR (DUCT): NEOPLASM, PERITONEAL CAVITY: SARCOMA, INTESTINES (SMALL): NEOPLASM, Tumor Site: Type of Lesion: EAR (DUCT): NEOPLASM, PERITONEAL CAVITY: SARCOMA, INTESTINES (SMALL): NEOPLASM
  carcinogen call: active; positive
Species: RAT, Strain/Sex: HOLTZMAN/MALE, Route: ORAL, Dose: 0.032% IN GRAIN DIET FOR 3 MO, Tumor Site: Type of Lesion: LIVER: NEOPLASM, FORESTOMACH: PAPILLOMA, CARCINOMA
  carcinogen call: active; positive
Species: RAT, Strain/Sex: HOLTZMAN/MALE, Route: SUBCUTANEOUS, Dose: 3.2 MG IN 0.2 ML TRICAPRYLIN 2/WK FOR 4 WK, Tumor Site: Type of Lesion: INJECTION SITE: SARCOMA, EAR (DUCT): CARCINOMA
  carcinogen call: active; positive
Species: RAT, Strain/Sex: NIHBL/MALE,FEMALE, Route: ORAL, Dose: 80 UG/G IN DIET FOR 64 WK, Tumor Site: Type of Lesion: LIVER: HEPATOMA, CHOLANGIOMA
  carcinogen call: active; positive
Species: RAT, Strain/Sex: SPRAGUE-DAWLEY/FEMALE, Route: INTRAPERITONEAL, Dose: 0.10, 0.17 MMOL/RAT (TOTAL DOSE), Tumor Site: Type of Lesion: MAMMARY GLAND: ADENOCARCINOMA
  carcinogen call: active; positive
Species: RAT, Strain/Sex: STRAIN-CD/FEMALE, Route: INTRAPERITONEAL, Dose: 0, 67 UMOL/KG BW IN DMSO 3/WK FOR 4 WK (STUDY DURATION: 61 WK), Tumor Site: Type of Lesion: MAMMARY GLAND: ADENOCARCINOMA, HEMATOPOIETIC SYSTEM: LEUKEMIA, LYMPHOMA
  carcinogen call: active; positive
Species: RAT, Strain/Sex: STRAIN-CD/FEMALE, Route: ORAL, Dose: 0.025% IN GRAIN DIET FOR 4 MO, Tumor Site: Type of Lesion: MAMMARY GLAND: CARCINOMA, LIVER: BENIGN TUMOR, NEOPLASM, EAR (DUCT): CARCINOMA, Tumor Site: Type of Lesion: MAMMARY GLAND: CARCINOMA, LIVER: BENIGN TUMOR, NEOPLASM, EAR (DUCT): CARCINOMA
  carcinogen call: active; positive

## CN(C)c1ccc(N=Nc2ccccc2)cc1
Species: DOG, Route: ORAL, Tumor Site: Type of Lesion: URINARY BLADDER
  carcinogen call: active; positive
Species: MOUSE, Route: SUBCUTANEOUS, Tumor Site: Type of Lesion: LIVER, INJECTION SITE
  carcinogen call: active; positive
Species: MOUSE, Strain/Sex: B6C3F1/FEMALE, Route: INTRAPERITONEAL, Dose: 0, 0.3 UMOL/G IN TRIOCTANOIN ONCE ON DAY 1 FOLLOWED BY 0.4 UMOL/G ONCE ON DAY 8, 15 AND 22 (STUDY DURATION: 10 MO)
  carcinogen call: inactive; negative
Species: MOUSE, Strain/Sex: B6C3F1/MALE, Route: INTRAPERITONEAL, Dose: 0, 0.017, 0.05, 0.15, 0.45 UMOL/G ONCE IN TRIOCTANOIN (STUDY DURATION: 10 MO), Dose: 0, 0.017, 0.05, 0.15, 0.45 UMOL/G ONCE IN TRIOCTANOIN (STUDY DURATION: 10 MO), Tumor Site: Type of Lesion: LIVER: HEPATOMA
  carcinogen call: active; positive
Species: MOUSE, Strain/Sex: B6C3F1/MALE, Route: INTRAPERITONEAL, Dose: 0, 0.3 UMOL/G IN TRIOCTANOIN ONCE ON DAY 1 FOLLOWED BY 0.4 UMOL/G ONCE ON DAY 8, 15 AND 22 (STUDY DURATION: 10 MO), Tumor Site: Type of Lesion: LIVER: HEPATOMA
  carcinogen call: active; positive
Species: RAT, Route: ORAL, Tumor Site: Type of Lesion: LIVER
  carcinogen call: active; positive
Species: RAT, Strain/Sex: F344/MALE, Route: INTRAPERITONEAL, Dose: 0, 0.3 UMOL/G IN TRIOCTANOIN ONCE ON DAY 1 FOLLOWED BY 0.4 UMOL/G ONCE ON DAY 8, 15 AND 22 (STUDY DURATION: 10 MO)
  carcinogen call: inactive; negative

## CCCCC(=O)O[C@H]1CC[C@H]2[C@@H]3CCc4cc(O)ccc4[C@H]3CC[C@]12C
Species: RAT, Strain/Sex: STRAIN-CD/MALE, Route: SUBCUTANEOUS, Dose: 0, 1 MG IN CASTOR OIL 1/4 WK FOR LIFE (STUDY DURATION: LIFE), Tumor Site: Type of Lesion: MAMMARY GLAND: TUMOR
  carcinogen call: active; positive

## O=P([O-])([O-])[O-].O=P([O-])([O-])[O-].[Pb+2].[Pb+2].[Pb+2]
Species: RAT, Strain/Sex: ALBINO, Route: SUBCUTANEOUS, Dose: 20 MG 1/WK FOR UP TO 16 MO (TOTAL DOSE 40-760 MG/RAT), Tumor Site: Type of Lesion: KIDNEY: ADENOMA, PAPILLOMA, CYSTADENOMA, CARCINOMA
  carcinogen call: active; positive
Species: RAT, Strain/Sex: STRAIN-CB/MALE, Route: SUBCUTANEOUS/INTRAPERITONEAL, Dose: TOTAL DOSES 29, 145, 450 MG, Dose: TOTAL DOSES 29, 145, 450 MG, Tumor Site: Type of Lesion: KIDNEY: ADENOMA, ADENOCARCINOMA
  carcinogen call: active; positive

## O=C1OC2(c3ccccc31)c1ccc(O)c(I)c1Oc1c2ccc(O)c1I
Species: MOUSE, Strain/Sex: ICR/FEMALE, Route: DERMAL, Dose: 0, 1 MG IN 0.1 ML DISTILLED WATER 2/WK FOR A MEAN TOTAL DOSE OF 132.6 MG (STUDY DURATION: 18 MO)
  carcinogen call: inactive; negative
Species: MOUSE, Strain/Sex: ICR/MALE, Route: DERMAL, Dose: 0, 1 MG IN 0.1 ML DISTILLED WATER 2/WK FOR A MEAN TOTAL DOSE OF 132.6 MG (STUDY DURATION: 18 MO)
  carcinogen call: inactive; negative

Source: PubChem BioAssay AID1259411 (Chemical Carcinogenesis Research Information System (CCRIS), 2018)
